Active and inactive are the calls of the source. For most assays here, no stated cut-off is given here; in the data, actives have a measured EC50 and inactives only a lower limit.
What was measured:
[1] = test system: Vero; assay: host cell cytotoxicity of antiviral hits, dose response, cytotoxicity control for West Nile virus antiviral project, secondary assay (AID 1650); type: functional; settings: Chlorocebus sabaeus
[2] = Luminescence Cell-Based Dose Retest to Confirm Inhibitors of Cancer Stem Cells. [Related pubchem assays (depositor defined):AID2717, AID2721]; type: functional; settings: Homo sapiens
[3] = target: T1, Heat shock factor protein 1 (Mus musculus, UniProt P38532); assay: HSF1 potentiators in luciferase reporter cells, confirmation, cell-based, NIH3T3, luminescence, dose retest (AID 435004); type: functional;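 further: stress induced by proteasome inhibitor MG132 added 30 min after compound; luciferase reporter driven by HSF1 response element in NIH3T3 cells; actives raise luminescence as potentiators of the MG132 stress response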
T1 sequence (P38532 whole entry): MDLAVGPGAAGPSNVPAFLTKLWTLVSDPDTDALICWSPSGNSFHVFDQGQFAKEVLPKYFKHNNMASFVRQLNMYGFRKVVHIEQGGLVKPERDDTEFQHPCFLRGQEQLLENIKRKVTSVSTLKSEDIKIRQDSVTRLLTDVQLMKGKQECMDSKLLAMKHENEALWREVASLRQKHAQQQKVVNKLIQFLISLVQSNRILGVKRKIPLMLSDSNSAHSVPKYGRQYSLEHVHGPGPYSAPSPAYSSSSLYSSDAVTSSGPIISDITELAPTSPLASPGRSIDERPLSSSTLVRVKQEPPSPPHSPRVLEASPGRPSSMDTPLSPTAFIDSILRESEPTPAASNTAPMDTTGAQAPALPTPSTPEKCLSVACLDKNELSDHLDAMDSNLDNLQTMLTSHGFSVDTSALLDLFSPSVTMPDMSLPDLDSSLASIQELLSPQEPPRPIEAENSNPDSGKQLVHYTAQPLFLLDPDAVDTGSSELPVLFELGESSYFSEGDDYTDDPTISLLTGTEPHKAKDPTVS

[4] = target: T2, Replicative DNA helicase DnaB (Mycobacterium tuberculosis, UniProt P9WMR3); assay: DnaB intein splicing inhibitors, dose response, biochemical, cell-free fluorescence (AID 449749); type: functional
T2 sequence (P9WMR3 whole entry): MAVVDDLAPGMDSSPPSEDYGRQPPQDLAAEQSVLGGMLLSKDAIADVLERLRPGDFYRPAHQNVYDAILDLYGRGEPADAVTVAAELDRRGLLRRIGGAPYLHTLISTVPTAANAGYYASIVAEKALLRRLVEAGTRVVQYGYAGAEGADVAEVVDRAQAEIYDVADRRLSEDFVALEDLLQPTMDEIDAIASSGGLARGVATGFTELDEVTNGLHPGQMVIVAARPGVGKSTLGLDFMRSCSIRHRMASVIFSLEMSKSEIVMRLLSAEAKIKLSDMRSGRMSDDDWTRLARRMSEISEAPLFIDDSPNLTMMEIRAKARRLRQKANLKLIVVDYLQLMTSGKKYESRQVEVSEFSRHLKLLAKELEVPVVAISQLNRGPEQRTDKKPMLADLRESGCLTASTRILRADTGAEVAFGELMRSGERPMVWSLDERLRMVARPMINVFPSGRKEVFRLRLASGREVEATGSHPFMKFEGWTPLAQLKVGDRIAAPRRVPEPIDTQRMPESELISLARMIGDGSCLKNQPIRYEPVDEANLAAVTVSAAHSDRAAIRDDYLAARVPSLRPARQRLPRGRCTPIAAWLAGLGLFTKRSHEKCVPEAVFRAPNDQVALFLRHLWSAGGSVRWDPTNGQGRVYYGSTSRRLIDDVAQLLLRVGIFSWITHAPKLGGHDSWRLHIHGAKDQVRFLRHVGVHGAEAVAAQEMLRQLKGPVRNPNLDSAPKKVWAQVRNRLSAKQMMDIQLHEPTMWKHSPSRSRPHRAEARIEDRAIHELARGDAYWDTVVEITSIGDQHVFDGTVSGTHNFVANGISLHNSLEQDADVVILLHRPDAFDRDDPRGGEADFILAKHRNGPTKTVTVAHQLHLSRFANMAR

[5] = target: T3, Protein RecA (Mycobacterium tuberculosis, UniProt P9WHJ3); assay: Fluorescence Cell-Free Homogeneous Dose Retest to Identify Inhibitors of RecA-Intein Splicing Activity. [Related pubchem assays (depositor defined):AID2097, AID2223, AID489010, AID492950]; type: functional
T3 sequence (P9WHJ3 whole entry): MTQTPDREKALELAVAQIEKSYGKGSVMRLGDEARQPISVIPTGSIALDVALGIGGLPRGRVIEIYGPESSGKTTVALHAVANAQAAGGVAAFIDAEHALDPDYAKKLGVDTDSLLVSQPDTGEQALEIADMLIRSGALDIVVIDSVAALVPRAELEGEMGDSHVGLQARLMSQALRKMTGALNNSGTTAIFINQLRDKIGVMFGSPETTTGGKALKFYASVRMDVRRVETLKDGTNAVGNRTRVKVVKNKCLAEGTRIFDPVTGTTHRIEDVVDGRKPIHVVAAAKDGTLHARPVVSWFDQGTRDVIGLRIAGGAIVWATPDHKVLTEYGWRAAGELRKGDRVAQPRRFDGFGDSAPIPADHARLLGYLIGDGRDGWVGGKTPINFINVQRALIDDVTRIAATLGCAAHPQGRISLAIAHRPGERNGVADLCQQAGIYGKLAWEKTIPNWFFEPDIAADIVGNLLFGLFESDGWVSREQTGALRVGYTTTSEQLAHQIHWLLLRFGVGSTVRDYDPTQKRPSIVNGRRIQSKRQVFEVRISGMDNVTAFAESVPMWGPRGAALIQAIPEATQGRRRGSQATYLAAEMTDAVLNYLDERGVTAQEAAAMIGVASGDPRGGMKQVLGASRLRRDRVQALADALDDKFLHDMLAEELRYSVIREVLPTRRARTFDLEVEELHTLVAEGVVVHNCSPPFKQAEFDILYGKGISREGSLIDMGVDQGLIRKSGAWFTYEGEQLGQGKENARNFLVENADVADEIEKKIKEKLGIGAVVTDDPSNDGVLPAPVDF

[6] = NIH-3T3 fibroblast cytotoxicity, dose response, cytotoxicity control, cell-based, fluorescence, Alamar Blue, secondary assay (AID 2327); type: functional;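 further: NIH-3T3 mouse fibroblasts cultured with fluconazole at 8 µg/mL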
[7] = C. albicans growth with fluconazole, confirmation, fluorescence, retest (AID 2467); type: functional, cell-based
[8] = enhancers of respiration in Yfh1-depleted yeast, dose response, Friedreich's ataxia, plus single-dose screen (AID 1465); type: functional;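 further: yeast depleted of Yfh1p frataxin homolog grown on glycerol needing respiration; WST-1 tetrazolium dye reduction as measure of cellular dehydrogenase metabolic activity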
[9] = target: Troponin, cardiac muscle (Homo sapiens, UniProt P19429+P45379+P63316); assay: Fluorescence-based biochemical high throughput dose response assay for activators of the calcium sensitivity of cardiac Regulated Thin Filaments (RTF). [Related pubchem assays (depositor defined):AID493008, AID493018, AID504382, AID504383]; type: protein-complex assay
[10] = target: NS3 (Hepatitis C virus, UniProt A3EZJ3); assay: PubChem AID 2173; parameters: species or system Hepacivirus hominis
[11] = target: Induced myeloid leukemia cell differentiation protein Mcl-1 (Homo sapiens, UniProt Q07820); type: functional
[12] = test system: Vero; assay: Vero cell cytotoxicity, cytotoxicity control for flavivirus capping enzyme inhibitors (AID 588742); type: functional; settings: Chlorocebus sabaeus
[13] = test system: Vero; assay: cells; type: functional, cell-based; settings: Chlorocebus sabaeus
[14] = test system: Vero; assay: cells; type: functional; settings: Chlorocebus sabaeus
[15] = inhibitors of firefly luciferase expression or activity, dose response, H4 neuroglioma cells, luminescence (AID 1990); type: functional, cell-based
[16] = Luminescence Cell-Based Dose Response HTS to Identify Inhibitors of 5'UTR Stem-Loop Driven Prion Protein mRNA Translation in H4 Neuroglioblastoma Cells. [Related pubchem assays: 1827 (Project Summary), 1813 (Primary HTS)]; type: functional
[17] = inhibitors of SNCA 5'UTR-driven reporter translation, confirmation, H4 neuroglioma cells, luminescence (AID 1988); type: functional, cell-based
[18] = Luminescence Cell-Based Dose Response to Identify Activators of 5'UTR Stem-Loop Driven Prion Protein mRNA Translation in H4-C Neuroglioblastoma Cells. [Related pubchem assays: 1829 (Project Summary), 1814 (Primary HTS)]; type: functional
[19] = Luminescence Cell-Based Dose Confirmation HTS to Identify Activators of 5'UTR Stem-Loop Driven Alpha-Synuclein mRNA Translation in H4 Neuroglioblastoma Cells. [Related pubchem assays: 1829 (Project Summary), 1814 (Primary HTS)]; type: functional
[20] = Luminescence Cell-Based Dose Response HTS to Identify Activators of Luciferase Translation or Activity in H4 […] Cells. [Related pubchem assays: 1829 (Project Summary), 1814 (Primary HTS)]; type: functional
[21] = test system: H4; assay: Luminescence Cell-Based Dose Response HTS to Identify Activators of 5'UTR Stem-Loop Driven Prion Protein mRNA Translation in H4 Neuroglioblastoma Cells. [Related pubchem assays: 1829 (Project Summary), 1814 (Primary HTS)]; type: functional; settings: Homo sapiens
[22] = Luminescence Cell-Based Dose Response to Identify Activators of Luciferase Translation or Activity in H4-C Neuroglioblastoma Cells. [Related pubchem assays: 1829 (Project Summary), 1814 (Primary HTS)]; type: functional
[23] = microbe, parasite or virus in culture; type: functional; settings: Mycobacterium tuberculosis
[24] = Luminescence Cell-Based Dose Confirmation to Identify Activators of 5'UTR Stem-Loop Driven Alpha-Synuclein mRNA Translation in H4 Neuroglioblastoma Cells. [Related pubchem assays: 1829 (Project Summary), 1814 (Primary HTS)]; type: functional
[25] = target: T1, Heat shock factor protein 1; assay: inhibition of MG132-induced HSE-luciferase signal, confirmation, cell-based, NIH3T3, luminescence, dose retest (AID 2382); type: functional;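 further: NIH3T3 fibroblasts with HSF1-driven luciferase reporter stressed by proteasome inhibitor MG132; luminescence from HSF1-driven luciferase expression after 8 hours of MG132 stress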
[26] = target: Sphingosine 1-phosphate receptor 4 (Homo sapiens, UniProt O95977); assay: Fluorescence dose response cell-based high throughput screening assay for antagonists of the Sphingosine 1-Phosphate Receptor 4 (S1P4). [Related pubchem assays: 1524 (Confirmation in triplicates.), 1510 (Primary screen.)]; type: functional
[27] = target: Sphingosine 1-phosphate receptor 1 (Homo sapiens, UniProt P21453); type: functional;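 further: Tango beta-arrestin reporter U2OS cells stimulated with S1P near its EC80; inhibitor potency meaning antagonism of receptor activation by the natural agonist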
[28] = test system: BJ; assay: cytotoxicity toward Ras-transformed BJeLR fibroblasts, dose response, cell-based, alamar blue fluorescence, cherrypicked samples (AID 2631); type: functional; settings: Homo sapiens;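 further: confirmatory dose-response assay in RAS-dependent BJ fibroblasts engineered with TERT, LT and ST, with cytotoxicity read by fluorescence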
[29] = test system: Streptococcus sp. 'group A'; assay: growth inhibition of control SK(-) GAS strain, dose response, counter-screen for streptokinase expression inhibitor project, luminescence, kanamycin, BacTiterGlo, confirmation (AID 1900); type: functional, organism-based
[30] = target: T4, Streptokinase A (Streptococcus pyogenes serotype M1, UniProt P10520); assay: S. pyogenes streptokinase expression inhibitors, potency, dose response, plasminogen activation absorbance, OD405 (AID 1914); type: functional, Streptococcus pyogenes M1 GAS;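 further: secreted streptokinase activity via plasminogen activation per viability signal from cell pellet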
T4 sequence (P10520 whole entry): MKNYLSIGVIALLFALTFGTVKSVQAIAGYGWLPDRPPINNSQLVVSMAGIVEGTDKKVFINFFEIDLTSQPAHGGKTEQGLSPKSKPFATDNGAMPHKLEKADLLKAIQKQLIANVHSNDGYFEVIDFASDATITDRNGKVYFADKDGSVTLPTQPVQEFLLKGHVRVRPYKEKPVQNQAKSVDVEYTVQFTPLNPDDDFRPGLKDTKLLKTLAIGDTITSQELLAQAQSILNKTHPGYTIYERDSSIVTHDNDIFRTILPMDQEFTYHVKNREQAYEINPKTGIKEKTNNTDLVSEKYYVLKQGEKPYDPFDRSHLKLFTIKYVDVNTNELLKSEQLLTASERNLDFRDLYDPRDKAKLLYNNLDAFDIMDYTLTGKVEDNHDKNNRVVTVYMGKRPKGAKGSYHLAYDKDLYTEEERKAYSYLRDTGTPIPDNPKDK

[31] = test system: Streptococcus; assay: Group A Streptococcus viability loss, dose response, counter-screen for streptokinase expression inhibitor project, luminescence, BacTiterGlo (AID 1915); type: functional, organism-based;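 further: potency for reduction of bacterial viability or growth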

In the case of `COc1ccc(/C=C/C(=O)c2ccc(O)cc2)cc1COc1ccc(F)cc1`, the CC50 [1] was 33.9 µM (active), the AC50 [2] was 3.91 µM (active) and the EC50 [3] was 24.3 µM (active). The AC50 [4] was > 380 µM (inactive) and the EC50 [5] was > 380 µM (inactive).

In the case of `COc1ccc(NC(=O)/C(C#N)=C\c2ccc(N3CCOCC3)o2)cc1`, the EC50 [6] was > 160 µM (inactive), the EC50 [7] was 1.68 µM (active) and the EC50 [8] was > 100 µM (active). The EC50 [9] was 1.58 µM (active).

In the case of `CN=c1ccc(Br)cc(C(=O)/C=C/c2ccc(Cl)cc2Cl)c1O`, the IC50 [10] was 8.09 µM (active), the IC50 [11] was 5.26 µM (active) and the CC50 [12] was 24.7 µM (active). For the same molecule, the IC50 [13] was 12.2 µM (active) and the CC50 [14] was 14.4 µM (active).

For `Cn1c(=O)oc2cc(S(=O)(=O)N3CCCC(C(=O)NC4CCCc5ccccc54)C3)ccc21` (stereo not drawn), the EC50 [15] was 13.8 µM (active), the EC50 [16] was 22.5 µM (active) and the CC50 [1] was 2.41 µM (active). The EC50 [17] was 12.9 µM (active).

With `O=C(Nc1nc2ccccc2[nH]1)C12CC3CC(CC(C3)C1)C2` the EC50 [18] was 0.299 µM (active), the EC50 [19] was < 0.1 µM (active) and the EC50 [20] was 0.19 µM (active). The EC50 [21] was 0.101 µM (active), the EC50 [22] was 0.358 µM (active) and the CC50 [23] was > 40 µM (active). The EC50 [24] was 0.341 µM (active).

With `O=C(CCl)Nc1cc(SCC(O)CO)cc([N+](=O)[O-])c1` (stereo not drawn) the EC50 [25] was 2.13 µM (active), the IC50 [26] was 1.31 µM (active) and the IC50 [27] was 4.46 µM (active). For the same molecule, the EC50 [28] was 1.05 µM (active).

With `Oc1c(Cl)cc(Cl)cc1/C=N/NC(=S)NC1CC2C=CC1C2` (stereo not drawn) the EC50 [29] was 0.333 µM (active), the EC50 [30] was 0.539 µM (active) and the IC50 [10] was 8.21 µM (active). The EC50 [31] was 1.3 µM (active).

Source: ChEMBL document CHEMBL1201862, “PubChem BioAssay data set” (2004)
